Laboratory results published in ChEMBL document CHEMBL1141328, “Biologically active aspidofractinine, rhazinilam, akuammiline, and vincorine alkaloids from Kopsia” (J Nat Prod, 2007).

Assays:
Type in all cases: functional, cell-based
[1] = Cytotoxicity against vincristine-resistant human KB/VJ300 cells in presence of 0.121 uM vincristine
[2] = tested on: KB; assay: Cytotoxicity against vincristine-resistant human KB cells
[3] = Cytotoxicity against vincristine-resistant human KB/VJ300 cells
[4] = tested on: KB; assay: Cytotoxicity against human KB cells
[5] = Cytotoxicity against human KB/VJ300 cells

| Compound | IC50 [1] | IC50 [2] | IC50 [3] | IC50 [4] | IC50 [5] |
| --- | --- | --- | --- | --- | --- |
| C/C=C1/CN2CC[C@]34C(=Nc5ccccc53)[C@@H]2C[C@H]1C4(C(=O)OC)C(=O)OC(C)=O (stereo partly specified) | > 25 µg/mL | > 25 µg/mL | > 25 µg/mL | – | – |
| COC(=O)N1c2ccc(OC)cc2[C@@]23CCN4CCC[C@]5(CC[C@]12[C@](O)(C(=O)OC)[C@H]5O)[C@H]43 [KOPSILOSCINE D] | 25.1 µM | > 25 µg/mL | > 25 µg/mL | – | – |
| COC(=O)N1c2ccccc2[C@@]23CCN4CCC[C@]5(CC[C@]12[C@](O)(C(=O)OC)[C@H]5O)[C@H]43 [KOPSILOSCINE B] | 11.7 µM | > 25 µg/mL | > 25 µg/mL | – | – |
| COC(=O)[C@H]1C[C@@]23CCCN4CC[C@@]5(c6ccccc6N[C@]15CC2)[C@@H]43 | > 25 µg/mL | > 25 µg/mL | > 25 µg/mL | – | – |
| COC(=O)N1c2c(OC)cccc2[C@@]23CCN4CC[C@H](O)[C@@]5(CC[C@]12[C@](O)(C(=O)OC)[C@H]5O)[C@H]43 [KOPSILOSCINE F] | > 25 µg/mL | > 25 µg/mL | > 25 µg/mL | – | – |
| COC(=O)N1c2ccccc2[C@@]23CCN4CC[C@H](O)[C@@]5(CC[C@]12[C@](O)(C(=O)OC)[C@H]5O)[C@H]43 [KOPSILOSCINE C] | > 25 µg/mL | > 25 µg/mL | > 25 µg/mL | – | – |
| CC[C@]1(O)C[C@H]2CN(CCc3c([nH]c4ccccc34)[C@@](C(=O)OC)(c3cc4c(cc3OC)N(C=O)[C@H]3[C@@](O)(C(=O)OC)[C@H](OC(C)=O)[C@]5(CC)C=CCN6CC[C@]43[C@@H]65)C2)C1 [VINCRISTINE] | – | – | – | 0.0028 µM | 1.2 µM |
| CC[C@]12CCCn3ccc(c31)-c1ccccc1NC(=O)CC2 [RHAZINILAM] | 1.16 µM | 0.65 µM | 0.83 µM | – | – |
| COC(=O)N1c2ccc(OC)cc2[C@@]23CCN4CC[C@H](O)[C@@]5(CC[C@]12[C@](O)(C(=O)OC)[C@H]5O)[C@H]43 [KOPSILOSCINE E] | > 25 µg/mL | > 25 µg/mL | > 25 µg/mL | – | – |
| CC[C@@]12CCC(=O)Nc3ccccc3-c3ccn(c31)C(=O)CC2 [RHAZINICINE] | 6.01 µM | 4.06 µM | 8.12 µM | – | – |
| C/C=C1/CN2CC[C@@]34c5ccccc5C[C@@]23CC[C@H]1C4(CO)C(=O)OC (stereo partly specified) [VINCOPHYLLINE] | > 25 µg/mL | > 25 µg/mL | > 25 µg/mL | – | – |
| CC[C@]12CCCn3c(C=O)cc(c31)-c1ccccc1NC(=O)CC2 [RHAZINAL] | 0.93 µM | 0.73 µM | 0.76 µM | – | – |
| COC(=O)N1c2ccccc2[C@@]23CCN4CC=C[C@]5(CC[C@]12C(O)(C(=O)OC)C5O)[C@H]43 (stereo partly specified) [KOPSILOSCINE A] | 8.9 µM | 45.8 µM | 42.3 µM | – | – |
| C/C=C1/CN(C=O)[C@H]2C[C@H]1C(C(=O)OC)[C@@]13CCO[C@@]21Nc1ccccc13 (stereo partly specified) [ASPIDOPHYLLINE A] | 29.1 µM | > 25 µg/mL | > 25 µg/mL | – | – |
